Measurements: article PMC4448209 (Journal of Neuroinflammation, 2015)
“Also recorded” adds a separate entry of the source.

Assays:
[1] = tested on: IFNγ-secreting splenocytes; settings: HLA-A2.1/HLA-DR1 mice, Aβ/CpG/IFA; dendritic cells loaded with Aβ or overlapping nonamer peptides; data not shown
Aβ-specific antibodies [2] = assay: Anti-Aβ antibody ELISA, HLA-A2.1/HLA-DR1 mice; format: in vivo, mouse; settings: Aβ1-42-coated plates, relative OD
Experimental: (§1) To measure serum anti-Aβ antibody titers in immunized mice, flat-bottom Nunc MaxiSorp ELISA plates were coated overnight at 4 °C with Aβ1-42 peptide (1 μg/ml in 0.1 M NaHCO3, pH 8.3). Plates were then washed twice with PBS-T and blocked with PBS-1 % BSA for 2 h at room temperature (RT). After two washes, plates were incubated for 2 h at RT with serum samples at various dilutions in blocking buffer. The Aβ1-17-specific mAb 6E10 (0.01 and 1 μg/ml) (Sigma-Aldrich, St Quentin Fallavier, France) was used as a positive internal reference sample. […] Results were expressed as relative OD = Experimental OD/Reference OD for 6E10 mAb in the same plate.

AD patients [3] = settings: cited from earlier work
Source text: (§2) Alzheimer’s disease (AD) is a severe neurodegenerative disorder characterized by progressive loss of memory and cognitive functions. Accumulation of amyloid-β peptide (Aβ), both as soluble oligomers and in the form of amyloid plaques, plays a key role in initiating the pathogenic cascade in AD. […] In line with ...

animal models of AD = settings: vaccination; cited from earlier work
Source text: as §2

Aβ-specific antibodies [4] = assay: Anti-Aβ antibody ELISA, C57BL/6 mice; format: in vivo, mouse
Experimental: as §1

[5] = Hydrophobicity and solubility remark from peptide synthesis; format: physicochemical; settings: likely reason why the 15-mer could not be productively synthetized
1C11 neuronal cells = assay: IFNγ ELISPOT, restimulation with 1C11 neuronal cells; settings: inferred from 1C11 cells and APPPS1 CD11b^+ microglia
Experimental: Nitrocellulose-based 96-well plates (Millipore, Billerica, MA, USA) were coated with anti-mouse IFN-γ capture mAb (1 μg/ml; clone R4-6A2, BD Biosciences) and saturated with complete culture medium. Responder splenocytes from individual mice were seeded at 10^6 or 5 × 10^5 cells/wells and cultured with medium alone or containing 10 μg/ml of peptide. In some experiments, splenocytes were stimulated with CD11b^+ microglia (3 × 10^4/wells) isolated from the brain of WT or APPPS1 mice, or with mitomycin-treated 1C11 cells (2 × 10^4/wells), a neuronal cell line expressing both APP and H-2^b MHC-I but not MHC-II molecules [25, 26]. Plates were incubated at 37 °C in 5 % CO2 for 18 h, washed, and incubated with biotinylated anti-mouse IFNγ detection mAb (0.5 μ/ml; clone XMG1.2, BD Biosciences). Alkaline phosphatase conjugated to streptavidin (Roche, France) (1/500 dilution, 100 μL/well) was then added. IFNγ-secreting cells were visualized using TNB/BCIP substrate (Promega, Charbonnières, France), and spots were counted using an automatic ELISPOT plate reader. Samples were assayed in triplicate, and the frequency of peptide-specific T cells was calculated after subtracting the mean number of spots obtained in the absence of peptide or cells.

[6] = tested on: IFNγ-secreting splenocytes; assay: IFNγ ELISPOT, splenocytes of immunized C57BL/6 mice; format: in vivo, mouse
AD patients [7] = settings: phase 3 studies released summer 2012; 10 (bapineuzumab), 11 (solanezumab); cited from earlier work

## Aβ1-42: Human Aβ1-42 peptide
[1]
  CD8^+ T cell response: did not trigger any CD8^+ T cells able to recognize dendritic cells loaded with either Aβ or overlapping nonamer peptides
Aβ-specific antibodies [2]
  Aβ-specific antibodies in serum: Aβ-specific antibodies were detected
AD patients [3]; AN1792
  beneficial effects in AD patients: modest beneficial effects
AD patients [3]; human, in vivo
  patients developing meningoencephalitis: 6%
Animal models of AD
  benefit in animal models of AD: of benefit in animal models of AD
Aβ-specific antibodies [4]
  anti-Aβ antibody isotypes: predominantly of IgG1 and IgG2b isotypes

## Aβ28-42: 15-mer candidate peptide, could not be productively synthetized (KGAIIGLMVGGVVIA; Amyloid-beta protein 42; UniProt P05067 699-713, looked up, fragment)
[5]
  hydrophobicity: very high hydrophobicity
  solubility: poor solubility

## GLMVGGVVI [Aβ33-41, Aβ-derived H-2-D^b-restricted nonamer]
1C11 neuronal cells
  natural processing and presentation by microglia and neuronal cells: can be naturally processed and presented in both microglia and neuronal cells; also recorded: appears to be naturally processed and presented to immune effectors
[6]
  restimulation of Aβ33-41NP-specific CD8^+ T cells by exogenously loaded native peptide: could not restimulate Aβ33-41NP-specific CD8^+ T cells when loaded exogenously

## solanezumab: humanized anti-Aβ monoclonal antibody
AD patients [7]
  improvement of cognitive performance: inefficient at improving cognitive performance
